Data published in PMC12702776 (Cancer Gene Therapy, 2025).

Tests used:
DHR2 domain of DOCK2 = system: DHR2 domain of DOCK2; design: method as in PMID 22520755; details: cited from earlier work
DOCK2 = target: T1, DOCK2 (Homo sapiens, UniProt Q92608); test: Active GTPase pull-down assay in IGR1 melanoma cells treated with DOCK2 inhibitor; type: cell-based; details: serum-stimulated IGR1 cells, 25 µM and 100 µM
T1 construct: endogenous in cells; host or cells: IGR1 human melanoma cells
Procedure: HEK-293T and IGR1 human melanoma cells were cultured under serum-stimulated and serum-starved conditions in DMEM supplemented with 10% FBS and 1% penicillin/streptomycin. The HEK-293T cells were then transfected with RAC1 constructs containing N-terminal 10×His–triple FLAG tags using TurboFect™ (Thermo Fisher Scientific), according to the manufacturer’s protocol. The HEK-293T cells were cultured and harvested under serum-stimulated or serum-starved conditions without additional treatment. IGR1 cells, in contrast, were treated with the DOCK2 inhibitor CPYPP (MedChemExpress) at 25 µM and 100 µM concentrations, with 0.5% DMSO as a vehicle control. After treatment, cells were harvested and lysed, and protein concentrations were determined using the Bradford assay. Detailed protocols, including buffer compositions, are provided in the Supplementary Information.
Experiments were conducted under both serum-stimulated and serum-starved conditions, as described previously. […] After incubation, the beads were washed and analyzed by SDS-PAGE followed by immunoblotting. […]
Cell culture, transfection, and treatment. […] The resulting supernatants were collected for downstream applications, and protein concentrations were determined using the Bradford assay.
Active GTPase pull-down assay. […] Samples were analyzed by SDS-PAGE and immunoblotting […]

IGR1 cells = details: cited from earlier work
RAC1^F28L = target: T2, RAC1^F28L (Homo sapiens, UniProt P63000, F28L); test: Nucleotide-binding assay (stopped-flow fluorimetry); details: faster than RAC1 WT
T2 construct: GST (N); made in house; host or cells: Escherichia coli
Procedure: (§1) The nucleotide-binding properties of RAC1 GTPases were assessed by stopped-flow fluorimetry, as described. Nucleotide association and dissociation rates were measured using fluorescent nucleotides (mdGDP and mGppNHp) and varying RAC1 concentrations. Association (kon) and dissociation (koff) rate constants were determined, and equilibrium dissociation constants (Kd) were calculated as described in Box 2. Detailed procedures are provided in the Supplementary Materials.
(§2) Nucleotide-binding assay. The nucleotide-binding properties of the RAC1 GTPases were assessed using a stopped-flow fluorimetry approach, as described (10). ucleotide association was measured with 0.1 µM fluorescently labeled nucleotides, such as mdGDP and mGppNHp, and varying concentrations of nucleotide-free RAC1 proteins (0.25–5 μM). Measurements were conducted in a buffer containing 30 mM Tris-HCl, pH 7.5, 10 mM KH2PO4/K2HPO4, 5 mM MgCl2, and 3 mM DTT, at 25 °C. The association rate constant (kon) was determined by plotting the observed rate constants (kobs) against the concentration of nucleotide-free RAC1 and analyzing the slope via linear regression using Origin software. The dissociation rate constant (koff) of the fluorescent nucleotide from RAC1 proteins (0.1 µM) was measured by adding a 200-fold excess of the non-fluorescent nucleotide (20 µM). The affinity of RAC1 proteins for GDP and GppNHp was calculated by dividing koff by kon, yielding the equilibrium dissociation constants (Kd), as defined in Box 2 of the main text.

RAC1^T17N = target: T3, RAC1^T17N (Homo sapiens, UniProt P63000, T17N); test: as above
T3 construct: GST (N); made in house; host or cells: Escherichia coli
Procedure: as §1, §2

RAC1^P29S = target: T4, RAC1^P29S (Homo sapiens, UniProt P63000, P29S); test: as above; details: RAC1 P29S compared to RAC1 WT
T4 construct: GST (N); made in house; host or cells: Escherichia coli
Procedure: as §1, §2

RAC1^WT = target: T5, RAC1^WT (Homo sapiens, UniProt P63000); test: as above
T5 construct: GST (N); made in house; host or cells: Escherichia coli
Procedure: as §1, §2

T1 sequence (Q92608 whole entry): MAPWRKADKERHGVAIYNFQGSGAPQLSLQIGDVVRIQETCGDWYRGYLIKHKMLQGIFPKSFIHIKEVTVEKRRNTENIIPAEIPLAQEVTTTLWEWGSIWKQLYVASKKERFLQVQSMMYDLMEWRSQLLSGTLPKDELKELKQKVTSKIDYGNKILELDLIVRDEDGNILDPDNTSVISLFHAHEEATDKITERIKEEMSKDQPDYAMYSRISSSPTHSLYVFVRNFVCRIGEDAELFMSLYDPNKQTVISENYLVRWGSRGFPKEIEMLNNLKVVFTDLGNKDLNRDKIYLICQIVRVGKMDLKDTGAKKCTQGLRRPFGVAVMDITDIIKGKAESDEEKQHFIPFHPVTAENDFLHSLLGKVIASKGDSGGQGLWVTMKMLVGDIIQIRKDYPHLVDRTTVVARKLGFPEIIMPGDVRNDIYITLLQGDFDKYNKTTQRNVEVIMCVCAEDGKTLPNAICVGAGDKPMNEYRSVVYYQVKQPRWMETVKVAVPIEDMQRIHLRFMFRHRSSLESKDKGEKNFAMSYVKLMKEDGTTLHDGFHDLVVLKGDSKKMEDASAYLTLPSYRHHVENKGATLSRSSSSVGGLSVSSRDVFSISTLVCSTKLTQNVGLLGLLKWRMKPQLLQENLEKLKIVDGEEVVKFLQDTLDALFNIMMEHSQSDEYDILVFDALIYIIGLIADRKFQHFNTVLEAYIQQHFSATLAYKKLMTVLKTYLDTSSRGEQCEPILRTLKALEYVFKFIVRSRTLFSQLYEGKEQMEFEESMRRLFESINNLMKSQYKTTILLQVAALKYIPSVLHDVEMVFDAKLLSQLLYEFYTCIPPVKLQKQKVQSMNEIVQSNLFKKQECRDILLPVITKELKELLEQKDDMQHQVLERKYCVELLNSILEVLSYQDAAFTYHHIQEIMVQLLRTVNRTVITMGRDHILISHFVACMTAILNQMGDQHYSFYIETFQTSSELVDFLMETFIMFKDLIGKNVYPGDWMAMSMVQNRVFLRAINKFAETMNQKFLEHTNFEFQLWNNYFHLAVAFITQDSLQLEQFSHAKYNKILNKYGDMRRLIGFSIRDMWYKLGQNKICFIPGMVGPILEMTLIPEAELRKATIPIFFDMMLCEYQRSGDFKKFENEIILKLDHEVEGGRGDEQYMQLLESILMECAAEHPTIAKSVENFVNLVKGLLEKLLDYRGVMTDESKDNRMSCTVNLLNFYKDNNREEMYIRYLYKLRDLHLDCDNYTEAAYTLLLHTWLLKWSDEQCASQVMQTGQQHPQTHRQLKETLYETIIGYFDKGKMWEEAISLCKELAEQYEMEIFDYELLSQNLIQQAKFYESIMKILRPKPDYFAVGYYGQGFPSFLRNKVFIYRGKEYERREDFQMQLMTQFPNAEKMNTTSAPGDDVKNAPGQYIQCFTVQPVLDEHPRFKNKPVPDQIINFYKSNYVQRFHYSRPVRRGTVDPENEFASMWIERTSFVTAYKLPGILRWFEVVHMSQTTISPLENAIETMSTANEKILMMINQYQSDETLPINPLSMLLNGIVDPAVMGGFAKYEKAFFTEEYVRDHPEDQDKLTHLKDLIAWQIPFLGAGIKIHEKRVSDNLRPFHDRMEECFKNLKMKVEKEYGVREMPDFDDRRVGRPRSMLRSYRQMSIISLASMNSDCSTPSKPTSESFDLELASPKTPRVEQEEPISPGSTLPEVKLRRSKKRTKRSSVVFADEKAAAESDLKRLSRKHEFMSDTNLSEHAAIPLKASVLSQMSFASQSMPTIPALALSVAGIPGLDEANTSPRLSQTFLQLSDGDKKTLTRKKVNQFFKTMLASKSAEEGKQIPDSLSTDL

**Q.** Which “effect on DOCK2 catalytic activity” value (DHR2 domain of DOCK2) does the source give for O=C1NN(c2ccccc2)C(=O)/C1=C/C=C/c1ccccc1Cl [CPYPP] here?
**A.** reversibly blocking its catalytic activity

**Q.** And the “effect on RAC1^P29S activation” value (DOCK2)?
**A.** reduced RAC1^P29S activation in a dose-dependent manner

**Q.** Which “sensitivity of IGR1 cells (RAC1^P29S, BRAF^V600K)” value (IGR1 cells) does the source give for CC(C)(C)c1nc(-c2cccc(NS(=O)(=O)c3c(F)cccc3F)c2F)c(-c2ccnc(N)n2)s1 [dabrafenib] here?
**A.** reduced sensitivity

**Q.** For CNc1ccccc1C(=O)O[C@H]1C[C@H](n2cnc3c(=O)[nH]c(N)nc32)O[C@@H]1COP(=O)(O)OP(=O)(O)O [mdGDP, methylanthraniloyl-2'-deoxy-guanosine 5′-diphosphate], which “intrinsic nucleotide dissociation rate, F28L vs WT” value (RAC1^F28L) is on record?
**A.** 20 fold

**Q.** What about the “decrease in binding affinity, T17N vs WT” value (RAC1^T17N; RAC1 T17N compared to RAC1 WT) of the same molecule?
**A.** 1346 fold

**Q.** What about the “dissociation rate, T17N vs WT” value (RAC1^T17N; higher than RAC1 WT) of the same molecule?
**A.** 410 fold

**Q.** What about the “Kd, lower affinity P29S vs WT” value (RAC1^P29S) of the same molecule?
**A.** 147 fold

**Q.** And the “koff, increase P29S vs WT” value (RAC1^P29S)?
**A.** 10 fold

**Q.** And the “kon, reduction P29S vs WT” value (RAC1^P29S)?
**A.** 14 fold

**Q.** And the Kd (RAC1^WT)?
**A.** 0.3 nM

**Q.** Which “sensitivity of IGR1 cells (RAC1^P29S, BRAF^V600K)” value (IGR1 cells) does the source give for CCCS(=O)(=O)Nc1ccc(F)c(C(=O)c2c[nH]c3ncc(-c4ccc(Cl)cc4)cc23)c1F [vemurafenib] here?
**A.** reduced sensitivity

**Q.** For “methylanthraniloyl guanosine 5'-[beta,gamma-imido]triphosphate [mGppNHp]”, which “Kd, lower affinity P29S vs WT” value (RAC1^P29S) is on record?
**A.** 289 fold

**Q.** And the “kon, reduction P29S vs WT” value (RAC1^P29S)?
**A.** 27 fold

**Q.** What about the Kd (RAC1^WT) of the same molecule?
**A.** 0.6 nM
